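Cultured in 96-well plates, cells were exposed to test compound for 48 hours across five concentrations. GI50 = concentration required for 50% inhibition of growth. Definition used: TGI = concentration required for complete inhibition of growth.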
Key:
Assay in all cases: NCI anticancer screen, dose series, 48 h
HCT-15 colon = system: HCT-15 colon
SK-MEL-5 melanoma = system: SK-MEL-5 melanoma
CAKI-1 renal = system: CAKI-1 renal
NCI-H23 lung = system: NCI-H23 lung
MDA-MB-231 breast = system: MDA-MB-231 breast
OVCAR-8 ovarian = system: OVCAR-8 ovarian
SK-MEL-2 melanoma = system: SK-MEL-2 melanoma
UO-31 renal = system: UO-31 renal
BT-549 breast = system: BT-549 breast
HS 578T breast = system: HS 578T breast
MALME-3M melanoma = system: MALME-3M melanoma
HCT-116 colon = system: HCT-116 colon
SNB-19 CNS = system: SNB-19 CNS
HL-60(TB) leukemia = system: HL-60(TB) leukemia
K-562 leukemia = system: K-562 leukemia
A549 NSCLC = system: A549 NSCLC
NCI-H226 lung = system: NCI-H226 lung
SF-295 CNS = system: SF-295 CNS
HOP-92 NSCLC = system: HOP-92 NSCLC
OVCAR-5 ovarian = system: OVCAR-5 ovarian
PC-3 prostate = system: PC-3 prostate
CCRF-CEM leukemia = system: CCRF-CEM leukemia
IGROV1 ovarian = system: IGROV1 ovarian
LOX IMVI melanoma = system: LOX IMVI melanoma
RXF 393 renal = system: RXF 393 renal
SF-539 CNS = system: SF-539 CNS
EKVX NSCLC = system: EKVX NSCLC
KM12 colon = system: KM12 colon
OVCAR-4 ovarian = system: OVCAR-4 ovarian
ACHN renal = system: ACHN renal
T-47D breast = system: T-47D breast
NCI-H460 lung = system: NCI-H460 lung
TK-10 renal = system: TK-10 renal
SK-OV-3 ovarian = system: SK-OV-3 ovarian
UACC-62 melanoma = system: UACC-62 melanoma
DU-145 prostate = system: DU-145 prostate
HCC-2998 colon = system: HCC-2998 colon
MOLT-4 leukemia = system: MOLT-4 leukemia
786-0 renal = system: 786-0 renal
NCI/ADR-RES ovarian = system: NCI/ADR-RES ovarian
M14 melanoma = system: M14 melanoma
OVCAR-3 ovarian = system: OVCAR-3 ovarian
UACC-257 melanoma = system: UACC-257 melanoma
COLO 205 colon = system: COLO 205 colon
SNB-75 CNS = system: SNB-75 CNS
RPMI-8226 leukemia = system: RPMI-8226 leukemia
SN12C renal = system: SN12C renal
MCF7 breast = system: MCF7 breast
SK-MEL-28 melanoma = system: SK-MEL-28 melanoma
HOP-62 NSCLC = system: HOP-62 NSCLC
SW-620 colon = system: SW-620 colon
SF-268 CNS = system: SF-268 CNS
NCI-H522 lung = system: NCI-H522 lung
MDA-MB-435 = system: MDA-MB-435
U251 CNS = system: U251 CNS
A498 renal = system: A498 renal

SMILES: COc1ccc(C(CC(=O)c2ccccc2)C(C(=O)c2ccccc2)C(c2ccc(OC)cc2)C2C(=O)NC(=O)NC2=O)cc1 (configuration not stated)
- GI50 (HCT-15 colon): 21.9 µM
- TGI (HCT-15 colon): > 100 µM
- GI50 (SK-MEL-5 melanoma): 12.5 µM
- TGI (SK-MEL-5 melanoma): 31.8 µM
- GI50 (CAKI-1 renal): 2.85 µM
- TGI (CAKI-1 renal): 20.3 µM
- GI50 (NCI-H23 lung): 37.3 µM
- TGI (NCI-H23 lung): > 100 µM
- GI50 (MDA-MB-231 breast): 2.24 µM
- TGI (MDA-MB-231 breast): 16.2 µM
- GI50 (OVCAR-8 ovarian): 24.7 µM
- TGI (OVCAR-8 ovarian): 68.7 µM
- GI50 (SK-MEL-2 melanoma): 38.5 µM
- TGI (SK-MEL-2 melanoma): > 100 µM
- GI50 (UO-31 renal): 13.5 µM
- TGI (UO-31 renal): 47.7 µM
- GI50 (BT-549 breast): 21.9 µM
- TGI (BT-549 breast): 92.8 µM
- GI50 (HS 578T breast): 25.9 µM
- TGI (HS 578T breast): > 100 µM
- GI50 (MALME-3M melanoma): 33.1 µM
- TGI (MALME-3M melanoma): > 100 µM
- GI50 (HCT-116 colon): 14.2 µM
- TGI (HCT-116 colon): 35.9 µM
- GI50 (SNB-19 CNS): 13.7 µM
- TGI (SNB-19 CNS): > 100 µM
- GI50 (HL-60(TB) leukemia): 41.2 µM
- TGI (HL-60(TB) leukemia): > 100 µM
- GI50 (K-562 leukemia): 39.1 µM
- TGI (K-562 leukemia): > 100 µM
- GI50 (A549 NSCLC): 15.9 µM
- TGI (A549 NSCLC): > 100 µM
- GI50 (NCI-H226 lung): 20 µM
- TGI (NCI-H226 lung): 62 µM
- GI50 (SF-295 CNS): 23.2 µM
- TGI (SF-295 CNS): > 100 µM
- GI50 (HOP-92 NSCLC): 2.3 µM
- TGI (HOP-92 NSCLC): 50.2 µM
- GI50 (OVCAR-5 ovarian): 17.4 µM
- TGI (OVCAR-5 ovarian): 56.8 µM
- GI50 (PC-3 prostate): 7.31 µM
- TGI (PC-3 prostate): > 100 µM
- GI50 (CCRF-CEM leukemia): 12.9 µM
- TGI (CCRF-CEM leukemia): > 100 µM
- GI50 (IGROV1 ovarian): 13.2 µM
- TGI (IGROV1 ovarian): > 100 µM
- GI50 (LOX IMVI melanoma): 9.38 µM
- TGI (LOX IMVI melanoma): > 100 µM
- GI50 (RXF 393 renal): 22.6 µM
- TGI (RXF 393 renal): > 100 µM
- GI50 (SF-539 CNS): 17.8 µM
- TGI (SF-539 CNS): 63.2 µM
- GI50 (EKVX NSCLC): 12.5 µM
- TGI (EKVX NSCLC): > 100 µM
- GI50 (KM12 colon): 19.1 µM
- TGI (KM12 colon): > 100 µM
- GI50 (OVCAR-4 ovarian): 26 µM
- TGI (OVCAR-4 ovarian): > 100 µM
- GI50 (ACHN renal): 17.9 µM
- TGI (ACHN renal): > 100 µM
- GI50 (T-47D breast): 21.6 µM
- TGI (T-47D breast): > 100 µM
- GI50 (NCI-H460 lung): 7.14 µM
- TGI (NCI-H460 lung): > 100 µM
- GI50 (TK-10 renal): 43.2 µM
- TGI (TK-10 renal): > 100 µM
- GI50 (SK-OV-3 ovarian): > 100 µM
- TGI (SK-OV-3 ovarian): > 100 µM
- GI50 (UACC-62 melanoma): 16.2 µM
- TGI (UACC-62 melanoma): 48.9 µM
- GI50 (DU-145 prostate): 19.2 µM
- TGI (DU-145 prostate): 70.5 µM
- GI50 (HCC-2998 colon): 6.83 µM
- TGI (HCC-2998 colon): 28.5 µM
- GI50 (MOLT-4 leukemia): 60.7 µM
- TGI (MOLT-4 leukemia): > 100 µM
- GI50 (786-0 renal): 27.8 µM
- TGI (786-0 renal): > 100 µM
- GI50 (NCI/ADR-RES ovarian): 22.2 µM
- TGI (NCI/ADR-RES ovarian): 63.7 µM
- GI50 (M14 melanoma): 19.8 µM
- TGI (M14 melanoma): 60.8 µM
- GI50 (OVCAR-3 ovarian): 11.9 µM
- TGI (OVCAR-3 ovarian): 44.4 µM
- GI50 (UACC-257 melanoma): 14.1 µM
- TGI (UACC-257 melanoma): 69.3 µM
- GI50 (COLO 205 colon): 3.43 µM
- TGI (COLO 205 colon): 19.1 µM
- GI50 (SNB-75 CNS): 32.6 µM
- TGI (SNB-75 CNS): > 100 µM
- GI50 (RPMI-8226 leukemia): 13.8 µM
- TGI (RPMI-8226 leukemia): > 100 µM
- GI50 (SN12C renal): 24.2 µM
- TGI (SN12C renal): > 100 µM
- GI50 (MCF7 breast): 18.7 µM
- TGI (MCF7 breast): > 100 µM
- GI50 (SK-MEL-28 melanoma): 23.7 µM
- TGI (SK-MEL-28 melanoma): > 100 µM
- GI50 (HOP-62 NSCLC): 26.3 µM
- TGI (HOP-62 NSCLC): 66.6 µM
- GI50 (SW-620 colon): 26.3 µM
- TGI (SW-620 colon): > 100 µM
- GI50 (SF-268 CNS): 12.8 µM
- TGI (SF-268 CNS): 75.4 µM
- GI50 (NCI-H522 lung): 16.2 µM
- TGI (NCI-H522 lung): 72.6 µM
- GI50 (MDA-MB-435): 19.6 µM
- TGI (MDA-MB-435): > 100 µM
- GI50 (U251 CNS): 10.7 µM
- TGI (U251 CNS): 51.3 µM
- GI50 (A498 renal): 11 µM
- TGI (A498 renal): 43.5 µM
